Results taken from patent US20260021079A1, “NOX INHIBITORS FOR USE IN THE TREATMENT OF ALPORT SYNDROME” (CALLIDITAS THERAPEUTICS SUISSE SA, priority 2022, published 2026).

How the values were obtained:
Type in all cases: in vivo
[1] = system: homozygous Col4a3 ko/ko mice; test: Albumin levels in urine (Albumin Mouse ELISA) in Col4a3 Alport mouse model; details: setanaxib 60 mg/kg daily oral gavage, Ramipril 10 mg/kg via drinking water; for Albumin levels in urine vs vehicle: age 6 weeks (2 weeks of treatment)
From the text: Mice homozygous for the Col4a3 ko/ko targeted mutation are a model for autosomal-recessive Alport syndrome (Cosgrove et al. Kidney Int. 2007, 71(7), p. 615-618). Animals bred on a 129/SvJ background develop glomerulonephritis and die at about 8.5 weeks of age (Jackson Laboratory strain: #002908). Gross et al. Kidney Int. 2003, 63(2), p. 438-446) reported a mean survival of 10 weeks. Since homozygous Col4a3 ko/ko mice reflect key features of Alport syndrome, this mouse model is useful to test potential drug candidates. A number of 40 homozygous Col4a3 ko/ko mice, allocated to 4 groups (vehicle, setanaxib, Ramipril, and setanaxib+Ramipril combination) with n=10 animals each, were used for the study. Starting at an age of 4 weeks, animals were treated with vehicle and/or compound daily per oral gavage for 4 weeks. The reference compound Ramipril was administered via drinking water, prepared on a weekly basis, but changed at the latest after 4 days. Additionally, one wild-type control group (Col4A3+/+) without any treatment was enclosed in the study with n=6 animals. […] Albumin and Creatinine levels were evaluated by ELISA in urine samples of 8 animals per treatment group. Treatment 40 homozygous Col4a3 ko/ko mice, allocated to 4 groups with n=10 animals each, were used for this study. Animals were treated with vehicle or compound daily per oral gavage for 4 weeks starting at an age of 4 weeks. The reference compound Ramipril was administered via drinking water, prepared on a weekly basis, but changed latest after 4 days. Additionally, one wild-type control group without any treatment was enclosed in the study with n=6 animals. The treatment groups are outlined in the table below: […] In case no urine was produced during the fixation process, massage of the abdomen was allowed. Urine was collected in Eppendorf Tubes, spun at 800×g at room temperature for 10 minutes and supernatant was transferred into a fresh tube and frozen at -20° C. until use. Creatinine and Albumin levels in urine supernatants, collected from 8 animals each group […] timepoints, at baseline, 6 and 8 weeks of age (n=96), were analyzed. Albumin levels in urine supernatants, collected from each animal per group at 3 time points (total n=96) were analyzed using an Albumin Mouse ELISA Kit (ab108792; Abcam) according to manufacturer protocol. Briefly, urine samples were centrifuged at 800×g for 10 minutes and diluted into Diluent N. 50 μL of albumin standard or sample was added per well and incubated for 2 hours. After a washing step, 50 μL of biotinylated albumin antibody was added to each well and incubated for 1 hour. […] Albumin levels were determined by reading the absorbance at 450 nm immediately after adding the stop solution.

[2] = system: homozygous Col4a3 ko/ko mice; test: Albumin/creatinine ratio in urine in Col4a3 Alport mouse model; details: Ramipril 10 mg/kg
From the text: Mice homozygous for the Col4a3 ko/ko targeted mutation are a model for autosomal-recessive Alport syndrome (Cosgrove et al. Kidney Int. 2007, 71(7), p. 615-618). Animals bred on a 129/SvJ background develop glomerulonephritis and die at about 8.5 weeks of age (Jackson Laboratory strain: #002908). Gross et al. Kidney Int. 2003, 63(2), p. 438-446) reported a mean survival of 10 weeks. Since homozygous Col4a3 ko/ko mice reflect key features of Alport syndrome, this mouse model is useful to test potential drug candidates. A number of 40 homozygous Col4a3 ko/ko mice, allocated to 4 groups (vehicle, setanaxib, Ramipril, and setanaxib+Ramipril combination) with n=10 animals each, were used for the study. Starting at an age of 4 weeks, animals were treated with vehicle and/or compound daily per oral gavage for 4 weeks. The reference compound Ramipril was administered via drinking water, prepared on a weekly basis, but changed at the latest after 4 days. Additionally, one wild-type control group (Col4A3+/+) without any treatment was enclosed in the study with n=6 animals. […] Albumin and Creatinine levels were evaluated by ELISA in urine samples of 8 animals per treatment group. Treatment 40 homozygous Col4a3 ko/ko mice, allocated to 4 groups with n=10 animals each, were used for this study. Animals were treated with vehicle or compound daily per oral gavage for 4 weeks starting at an age of 4 weeks. The reference compound Ramipril was administered via drinking water, prepared on a weekly basis, but changed latest after 4 days. Additionally, one wild-type control group without any treatment was enclosed in the study with n=6 animals. The treatment groups are outlined in the table below: […] In case no urine was produced during the fixation process, massage of the abdomen was allowed. Urine was collected in Eppendorf Tubes, spun at 800×g at room temperature for 10 minutes and supernatant was transferred into a fresh tube and frozen at -20° C. until use. Creatinine and Albumin levels in urine supernatants, collected from 8 animals each group […] timepoints, at baseline, 6 and 8 weeks of age (n=96), were analyzed. Creatinine levels in urine samples of all animals (n=8 per group, 4 groups, 3 time points, total n=96) were analyzed. For that purpose, an enzymatic assay from Diazyme® (DZ072B) was used. The analysis was performed according to manufacturer protocol with minor modifications introduced for use in 96 well plates and readout in standard plate photometer (Cytation 5, Biotek). Albumin levels in urine supernatants, collected from each animal per group at 3 time points (total n=96) were analyzed using an Albumin Mouse ELISA Kit (ab108792; Abcam) according to manufacturer protocol.

[3] = system: homozygous Col4a3 ko/ko mice; test: Blood Urea Nitrogen (BUN) colorimetric detection in plasma, Col4a3 Alport mouse model; details: end of study (4 weeks of treatment); first experiment
From the text: (§1) Mice homozygous for the Col4a3 ko/ko targeted mutation are a model for autosomal-recessive Alport syndrome (Cosgrove et al. Kidney Int. 2007, 71(7), p. 615-618). Animals bred on a 129/SvJ background develop glomerulonephritis and die at about 8.5 weeks of age (Jackson Laboratory strain: #002908). Gross et al. Kidney Int. 2003, 63(2), p. 438-446) reported a mean survival of 10 weeks. Since homozygous Col4a3 ko/ko mice reflect key features of Alport syndrome, this mouse model is useful to test potential drug candidates. A number of 40 homozygous Col4a3 ko/ko mice, allocated to 4 groups (vehicle, setanaxib, Ramipril, and setanaxib+Ramipril combination) with n=10 animals each, were used for the study. Starting at an age of 4 weeks, animals were treated with vehicle and/or compound daily per oral gavage for 4 weeks. The reference compound Ramipril was administered via drinking water, prepared on a weekly basis, but changed at the latest after 4 days. Additionally, one wild-type control group (Col4A3+/+) without any treatment was enclosed in the study with n=6 animals. At study end the animals were euthanized by i.p. injection of pentobarbital and terminal blood was collected by heart puncture in EDTA coated tubes. […] BUN plasma levels of all animals at the end of the study were analyzed. […]

[4] = system: homozygous Col4a3 ko/ko mice; test: Quantitative detection of mouse Cystatin C in plasma (ELISA), Col4a3 Alport mouse model; details: end of study (4 weeks of treatment); first experiment
From the text: as §1, with “Cystatin C” for “BUN”

[5] = age 8 weeks (4 weeks of treatment), setanaxib 60 mg/kg

Row | SMILES | Albumin levels in urine vs vehicle ([1]; first experiment) | Albumin levels in urine vs vehicle ([1]; second experiment) | Albumin to Creatinine ratio in urine vs vehicle ([2]; age 6 weeks, first experiment, setanaxib 60 mg/kg) | Albumin to Creatinine ratio in urine vs vehicle ([2]; age 6 weeks, second experiment) | Albumin to Creatinine ratio in urine vs vehicle [2, 5] | BUN plasma levels vs vehicle [3] | Cystatin C plasma levels vs vehicle [4] | Albumin levels in urine vs vehicle ([1]; both experiments / experiment not specified) | Albumin levels in urine vs control (vehicle) ([1]; age 8 weeks (4 weeks of treatment)) | Albumin to Creatinine ratio in urine vs vehicle ([2]; age 6 weeks, both first and second experiment, setanaxib 60 mg/kg)
1 | CCOC(=O)[C@H](CCc1ccccc1)N[C@@H](C)C(=O)N1[C@H](C(=O)O)C[C@@H]2CCC[C@@H]21 [Ramipril, (2S,3aS,6aS)-1-[(2S)-2-[[(2S)-1-ethoxy-1-oxo-4-phenylbutan-2-yl]amino]propanoyl]-3,3a, 4,5,6,6a-hexahydro-2H-cyclopenta[b]pyrrole-2-carboxylic acid] | slightly reduced the amount of albumin in the urine | reduced to a greater extent | reduced the Albumin to Creatinine ratio, but without reaching significance | the reduction did reach significance | significantly decreased | significant decrease | significant decrease |  |  | 
2 | CN(C)c1cccc(-c2c3c(=O)n(-c4ccccc4Cl)[nH]c3cc(=O)n2C)c1 [setanaxib, 2-(2-chlorophenyl)-4-[3-(dimethylamino)phenyl]-5-methyl-1H-pyrazolo[4,3-c]pyridine-3,6(2H,5H)-dione] |  |  |  |  | average decrease | significant decrease | significant decrease | trend towards increased Albumin levels | decrease in average Albumin levels | trend in both the first and second experiment towards an increase
